Tests used:
Assay type in all cases: cell-based, human
[1] = system: PHA-induced PBMC proliferation; assay: Inhibition of PHA-induced PBMC proliferation (MTT assay); conditions: positive control 0.1 uM; PHA 5 μg/mL, 3 days; PHA alone 0.634, without PHA 0.245
Method: (§1) The peripheral blood mononuclear cells (PBMCs) from the blood of healthy adult donors were diluted and isolated by Ficoll-Paque (FP) gradient centrifugation (Amersham Biosciences) at 600 g for 30 min at room temperature. The isolated PBMCs were washed by phosphate buffered saline, re-suspended in 10% heat inactivated fetal bovine serum (FBS), and seeded in 96-well culture plate with a density of […] cells per well for assessing the anti-arthritis activity of the extracts as described herein.
PHA-induced PBMC proliferation was used as a technical platform for the assessment of anti-inflammation efficacy of various extracts of the present invention. Human PBMCs were co-cultured with PHA at a final concentration of 5 μg/mL and various extracts of Plectranthus amboinicus at a final concentration of 0˜90 μg/mL for 3 days. PBMCs treated by dexamethasone (DEX) before stimulation by PHA (5 μg/mL) were also included in the experiment as positive control samples. After cells were incubated for 3 days at 37° C. with humid air containing 5% CO2, MTT (methyl thiazolyl tetrazolium, MTT) assays were carried out to evaluate the proliferation rate of PBMCs. […] The absorbance of each well was detected by a photoelectric colorimeter at the wavelength of 540 nm. […] Three independent experiments were performed, and the data determined by MTT assays were further expressed as IC50.

TNF-α = assay: PHA-induced TNF-α release from PBMCs (ELISA); conditions: PHA + 0.1uM DEX; PHA alone 4031.3, without PHA 271.6
Method: as §1
(§2) PHA-induced PBMC proliferation was used as a technical platform for the assessment of anti-inflammation efficacy of various extracts of the present invention. Human PBMCs were co-cultured with PHA at a final concentration of 5 μg/mL and various extracts of Plectranthus amboinicus at a final concentration of 0˜90 μg/mL for 3 days. […] The absorbance of each well was detected by a photoelectric colorimeter at the wavelength of 540 nm. […] Three independent experiments were performed, and the data determined by MTT assays were further expressed as IC50.
(§3) On Day 3, cell supernatant was collected, divided, and stored at −20° C. until analysis. The amounts of TNF-α, interleukin IL-6, IFN-γ, and IL-5 in the supernatant were measured using Quantikine ELISA kits (R & D Systems, Minneapolis, Minn.) following the manufacturer's instruction.

IL-6 = assay: PHA-induced IL-6 release from PBMCs (ELISA); conditions: PHA + 0.1uM DEX; PHA alone 703.0, without PHA 157
Method: as §1, §2, §3

IFN-γ = assay: PHA-induced IFN-γ release from PBMCs (ELISA); conditions: PHA + 0.1uM DEX; PHA alone 176.8, without PHA 25.0
Method: as §1, §2, §3

IL-5 = assay: PHA-induced IL-5 release from PBMCs (ELISA); conditions: PHA + 0.1uM DEX; PHA alone 161.9, without PHA 37.0
Method: as §1, §2, §3

Q: `C[C@@H]1C[C@H]2[C@@H]3CCC4=CC(=O)C=C[C@]4(C)[C@@]3(F)[C@@H](O)C[C@]2(C)[C@@]1(O)C(=O)CO` [DEX, dexamethasone] was tested. Which “PHA-induced PBMC proliferation, MTT assay data (absorbance 540 nm)” value [1] did it give?
A: The value was 0.242.

Q: And the “Concentration of TNF-α released from PBMCs” value (TNF-α)?
A: Its value is 272.5 pg/mL.

Q: And the “Concentration of IL-6 released from PBMCs” value (IL-6)?
A: Its value is 157 pg/mL.

Q: What about the “Concentration of IFN-γ released from PBMCs” value (IFN-γ) of the same compound?
A: Its value is 25 pg/mL.

Q: And the “Concentration of IL-5 released from PBMCs” value (IL-5)?
A: The value was 37 pg/mL.

— patent publication US11517604B2, “Method for preparing Plectranthus amboinicus fraction having anti-arthritis activity” (ONENESS BIOTECH CO., priority 2011, dated 2022)
